{
  "source": "patent US20020039567A1",
  "about": "“Methods of treating bone or cartilage conditions by the administration of creatine” (priority 1998, published 2002)",
  "key": {"[1]": {"test_system": "osteoblasts (micromass culture)", "assay": "Mitochondrial activity (MTT conversion), micromass osteoblast cell culture", "assay_type": "cell-based, rat", "details": "for MTT reaction: 2 weeks vs 1 week", "protocol": "This isolation technique is based on the ability of osteoblasts to migrate from bone onto a substratum. Parietal and frontal calvariae (4 per animal) were aseptically explanted from 6 day-old IcoIbm rats. The calvariae were placed in Tyrode's balanced salt solution, calcium and magnesium free (TESS). The periosteum was enzymatically removed with 0.05% trypsin and 0.02% collagenase A (0.76 U/mg) dissolved in TBSS (40 calvaria/20 ml). The calvariae were shaken for 70 minutes in a waterbath at 37° C. They were washed with TESS and then transferred to 60 mm culture dishes (40 calvariae/dish) containing 5 ml of 0.02% collagenase A (0.76 U/mg) in culture medium BGJb Fitton-Jackson modification and placed in the incubator for 4 hours. The calvariae were then washed with culture medium B supplemented with 10% foetal calf serum (FCS). The calvariae were transferred into 60 mm culture dishes (4 frontal and 4 parietal/dish). The growth medium supplemented with 10% FCS and 50 μg/ml ascorbate was completely changed every 48 hours. The culture was kept for 3 weeks.\nAfter 3 weeks the migrated cells were harvested. The dish was washed with TESS, and 5 ml of TESS containing 0.05% trypsin and 0.02% collagenase A (0.76 U/mg) was added. After 1 hour in the incubator, the dish was washed with culture medium BGJb supplemented with 10% FCS. The dishes containing the calvariae and cells were rinsed with serum containing media BGJb. […] The viability of the resuspended cells was examined by the dye exclusion of 0.4% trypan blue, and the cells were counted in a haeinocytometer. […]\nOriginally, Mosmann, 1983 described the general principle involved in the detection of cell growth/cell death as indicated by the conversion of the tetrazolium salt (MTT) to the colored formazan by mitochondrial dehydrogenases. The concentration of this can then be measured spectrophotoinetrically. […]\n6. The absorbance of the supernatant (3 aliquots/dish) was read at 550 nm versus DMSO.\nIf the absorbance was higher than 1, the samples were diluted with DMSO."}, "[2]": {"test_system": "osteoblasts (micromass culture)", "assay": "Mineralization, micromass osteoblast cell culture", "assay_type": "cell-based, rat", "protocol": "This isolation technique is based on the ability of osteoblasts to migrate from bone onto a substratum. Parietal and frontal calvariae (4 per animal) were aseptically explanted from 6 day-old IcoIbm rats. The calvariae were placed in Tyrode's balanced salt solution, calcium and magnesium free (TESS). The periosteum was enzymatically removed with 0.05% trypsin and 0.02% collagenase A (0.76 U/mg) dissolved in TBSS (40 calvaria/20 ml). The calvariae were shaken for 70 minutes in a waterbath at 37° C. They were washed with TESS and then transferred to 60 mm culture dishes (40 calvariae/dish) containing 5 ml of 0.02% collagenase A (0.76 U/mg) in culture medium BGJb Fitton-Jackson modification and placed in the incubator for 4 hours. The calvariae were then washed with culture medium B supplemented with 10% foetal calf serum (FCS). The calvariae were transferred into 60 mm culture dishes (4 frontal and 4 parietal/dish). The growth medium supplemented with 10% FCS and 50 μg/ml ascorbate was completely changed every 48 hours. The culture was kept for 3 weeks. After 3 weeks the migrated cells were harvested. The dish was washed with TESS, and 5 ml of TESS containing 0.05% trypsin and 0.02% collagenase A (0.76 U/mg) was added. After 1 hour in the incubator, the dish was washed with culture medium BGJb supplemented with 10% FCS. The dishes containing the calvariae and cells were rinsed with serum containing media BGJb. The cells obtained were filtered through a 40 μm nylon mesh to remove bone debris and cell aggregates. The suspended cells were centrifuged at 600 g for 5 minutes. The cell pellet was resuspended in serum containing medium BGJb and centrifuged. The viability of the resuspended cells was examined by the dye exclusion of 0.4% trypan blue, and the cells were counted in a haeinocytometer. The inoculation densities were 2·10^5/10 cm^2 for monolayer and 2·10^5/30 μl for micromasses. The micromass cultures were kept for 1 hour in the incubator before 2 ml growth medium was added. All the cultures were kept at 37° C. in a humidified atmosphere of 5% CO2, 95% air. All culture media were supplemented with 50 μg/ml ascorbate. To analyze the collagen types, 60 μg/ml beta-aminopropionitrile (beta-APN) was added to the culture medium. During cell isolation and inoculation, no ascorbate was used to increase plating efficiency. No antibiotics and no beta-glycerophosphate were added. The media were completely changed every 48 hours (60 mm culture dish 5 ml; 35 mm culture dish 2 ml). The most specific method for detecting calcified matrices is the von Kossa reaction. Silver staining indicates the presence of calcium phosphate aggregated with certain organic acids. Structural details are completely obscured by the dark precipitate. Calcified tissue components are darkened in various shades from light brown to deep black, irrespective of their mineral content. [table]"}},
  "data": [
    {"molecule": "CN(CC(=O)O)C(=N)N", "note": "[creatine]", "values": [
      {"measurement": "MTT reaction", "setting": "[1]; 10 mM creatine, p<0.02", "result": "significantly higher MTT reaction"},
      {"measurement": "MTT reaction", "setting": "[1]; 20 mM creatine, p<0.006", "result": "significantly higher MTT reaction"},
      {"measurement": "MTT conversion", "setting": "[1]; 20 mM creatine, 3 weeks vs 2 weeks, p<0.015", "result": "significantly lower MTT conversion"},
      {"measurement": "mineralized area (FIG. 4)", "setting": "[2]; 10 mM creatine vs control, 2 weeks, p<0.00025", "result": "significantly more mineralization"},
      {"measurement": "mineralized area (FIG. 4)", "setting": "[2]; 10 mM creatine vs control, 3 weeks, p<0.0035", "result": "significantly higher"},
      {"measurement": "mineralization (FIG. 4)", "setting": "[2]; 10 mM creatine, 3 weeks vs 2 weeks, p<0.0015", "result": "significantly higher mineralization"},
      {"measurement": "mineralized area (FIG. 4)", "setting": "[2]; 20 mM creatine vs control, 2 weeks, p<0.00025", "result": "significantly more mineralization"},
      {"measurement": "mineralized area (FIG. 4)", "setting": "[2]; 20 mM creatine vs control, 3 weeks, p<0.03", "result": "significantly higher"}
    ]}
  ]
}
